US10174016B2 (BAYER AKTIENGESELLSCHAFT, priority 2014, dated 2019)
Like-named read-outs stand apart in the source and are kept apart here.

Assays:
human P2X2/3 receptor = human P2X2/3 receptor (Homo sapiens (Human), UniProt P56373+Q9UBL9); assay: Intracellular calcium measurement (FLIPR, Fluo-4) of antagonist activity at human P2X2/3 receptors; format: cell-based; conditions: human P2X2/3, FLIPR calcium assay, agonist α,β-Me-ATP; read-out: hP2X2/3 IC50
Method in brief: (§1)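 Cells expressing human P2X3 or P2X2/3, loaded with Fluo-4, preincubated 30 min at 37° C. with compound (1% DMSO final), then challenged with α,β-Me-ATP at its EC80. Peak FLIPR fluorescence over 90 sec gave % response; IC50, maximal inhibition and Hill slope from triplicates.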

human P2X3 receptor = human P2X3 receptor (Homo sapiens (Human), UniProt P56373); assay: Intracellular calcium measurement (FLIPR, Fluo-4) of antagonist activity at human P2X3 receptors; format: cell-based; conditions: read-out: hP2X3 IC50
human P2X3 receptor, sequence (P56373 whole entry): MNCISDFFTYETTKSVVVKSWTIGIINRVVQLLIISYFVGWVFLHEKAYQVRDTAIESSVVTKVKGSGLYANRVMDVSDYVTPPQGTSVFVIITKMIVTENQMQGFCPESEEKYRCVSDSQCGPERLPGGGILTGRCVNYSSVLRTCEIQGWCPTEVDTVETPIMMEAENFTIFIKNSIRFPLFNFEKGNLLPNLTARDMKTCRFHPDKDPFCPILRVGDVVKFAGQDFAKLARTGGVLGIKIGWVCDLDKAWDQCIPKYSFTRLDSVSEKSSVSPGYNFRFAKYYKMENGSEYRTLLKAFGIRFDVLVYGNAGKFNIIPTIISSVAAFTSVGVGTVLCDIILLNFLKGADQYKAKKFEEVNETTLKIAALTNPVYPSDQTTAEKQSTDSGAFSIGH
Method in brief: as §1

[1] = human P2X3, FLIPR calcium assay, agonist α,β-Me-ATP

human P2X2/3 receptor, sequence (P56373 whole entry): as above
human P2X2/3 receptor, sequence (Q9UBL9 whole entry): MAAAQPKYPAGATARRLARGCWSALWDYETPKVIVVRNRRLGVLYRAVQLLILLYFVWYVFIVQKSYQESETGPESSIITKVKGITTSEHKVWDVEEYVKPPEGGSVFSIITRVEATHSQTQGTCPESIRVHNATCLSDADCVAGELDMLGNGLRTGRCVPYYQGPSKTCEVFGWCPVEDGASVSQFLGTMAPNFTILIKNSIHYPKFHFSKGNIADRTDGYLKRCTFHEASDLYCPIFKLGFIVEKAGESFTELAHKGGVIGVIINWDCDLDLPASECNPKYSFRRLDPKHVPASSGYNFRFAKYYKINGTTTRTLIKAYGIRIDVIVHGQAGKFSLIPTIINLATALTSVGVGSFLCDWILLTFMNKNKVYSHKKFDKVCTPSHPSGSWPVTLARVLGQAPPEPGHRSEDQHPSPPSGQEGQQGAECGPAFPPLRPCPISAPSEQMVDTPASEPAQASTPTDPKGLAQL

IC50 (human P2X2/3 receptor)	IC50 (human P2X3 receptor; [1])	Compound	IC50 (human P2X3 receptor)
987 nM	34 nM	Cc1cnc(-c2cc(OC3C4COCC3CN(C(C)C)C4)cc(C(=O)N[C@H](C)c3cnc(C(F)(F)F)nc3)c2)s1 (stereo partly drawn) [Example 344, 3-[(7-isopropyl-3-oxa-7-azabicyclo[3.3.1]non-9-yl)oxy]-5-(5-methyl-1,3-thiazol-2-yl)-N-{(1R)-1-[2-(trifluoromethyl)pyrimidin-5-yl]ethyl}benzamide]	
99 nM	7 nM	COC(=O)N1CC2COCC(C1)C2Oc1cc(C(=O)N[C@H](C)c2cnc(C(F)(F)F)nc2)cc(-c2ncc(C)s2)c1 (stereo partly drawn) [Example 345, methyl 9-[3-(5-methyl-1,3-thiazol-2-yl)-5-({(1R)-1-[2-(trifluoromethyl)pyrimidin-5-yl]ethyl}carbamoyl)phenoxy]-3-oxa-7-azabicycle[3.3.1]nonane-7-carboxylate]	
1520 nM	9 nM	Cc1cnc(-c2cc(OC[C@H]3CNCCO3)cc(C(=O)N[C@H](C)c3cnc(C(F)(F)F)nc3)c2)s1 [Example 347, 3-(5-Methyl-1,3-thiazol-2-yl)-5-[(2R)-morpholin-2-ylmethoxy]-N-{(1R)-1-[2-(trifluoromethyl)pyrimidin-5-yl]ethyl}benzamide]	
1160 nM	14 nM	Cc1cnc(-c2cc(OC[C@@H]3CNCCO3)cc(C(=O)N[C@H](C)c3cnc(C(F)(F)F)nc3)c2)s1 [Example 350, 3-(5-Methyl-1,3-thiazol-2-yl)-5-[(2S)-morpholin-2-ylmethoxy]-N-{(1R)-1-[2-(trifluoromethyl)pyrimidin-5-yl]ethyl}benzamide]	
1140 nM	18 nM	Cc1cnc(-c2cc(OCC3CNCCO3)cc(C(=O)N[C@H](C)c3cnc(C(F)(F)F)nc3)c2)s1 (stereo partly drawn) [Example 352, 3-(5-Methyl-1,3-thiazol-2-yl)-5-[morpholin-2-ylmethoxy]-N-{(1R)-1-[2-(trifluoromethyl)pyrimidin-5-yl]ethyl}benzamide]	
1030 nM	25 nM	Cc1cnc(-c2cc(OC[C@@]3(F)CCCNC3)cc(C(=O)N[C@H](C)c3cnc(C(F)(F)F)nc3)c2)s1 [Example 354]	
1440 nM	57 nM	Cc1cnc(-c2cc(OCC3(F)CNC3)cc(C(=O)N[C@H](C)c3cnc(C(F)(F)F)nc3)c2)s1 [Example 358, 3-[(3-fluoroazetidin-3-yl)methoxy]-5-(5-methyl-1,3-thiazol-2-yl)-N-{(1R)-1-[2-(trifluoromethyl)pyrimidin-5-yl]ethyl}benzamide]	
200 nM	6 nM	Cc1cnc(-c2cc(OCC3CNCCC3(F)F)cc(C(=O)N[C@H](C)c3cnc(C(F)(F)F)nc3)c2)s1 (stereo partly drawn) [Example 359, 3-{[4,4-difluoropiperidin-3-yl]methoxy}-5-(5-methyl-1,3-thiazol-2-yl)-N-{(1R)-1-[2-(trifluoromethyl)pyrimidin-5-yl]ethyl}benzamide]	
943 nM	16 nM	Cc1cnc(-c2cc(OCC3CC(F)CN3C)cc(C(=O)N[C@H](C)c3cnc(C(F)(F)F)nc3)c2)s1 (stereo partly drawn) [Example 364, 3-{[4-fluoro-1-methylpyrrolidin-2-yl]methoxy}-5-(5-methyl-1,3-thiazol-2-yl)-N-{(1R)-1-[2-(trifluoromethyl)pyrimidin-5-yl]ethyl}benzamide]	

Continued, compound first:

Compound	IC50 (human P2X2/3 receptor)	IC50 (human P2X3 receptor; [1])	IC50 (human P2X3 receptor)
Cc1cnc([C@@H](C)NC(=O)c2cc(OC3CCN(CC(F)(F)F)CC3)cc(-c3ncc(C)s3)c2)cn1 [Example 313, N-[(1R)-1-(5-methylpyrazin-2-yl)ethyl]-3-(5-methyl-1,3-thiazol-2-yl)-5-{[1-(2,2,2-trifluoroethyl)piperidin-4-yl]oxy}benzamide]	200 nM	11 nM	
Cc1ccc(CNC(=O)c2cc(OC3CCN(CC(F)(F)F)CC3)cc(-c3ncc(C)s3)c2)nn1 [Example 314, N-[(6-methylpyridazin-3-yl)methyl]-3-(5-methyl-1,3-thiazol-2-yl)-5-{[1-(2,2,2-trifluoroethyl)piperidin-4-yl]oxy}benzamide]	192 nM		8 nM
Cc1ncc([C@@H](C)NC(=O)c2cc(OC3CCN(CC(F)(F)F)CC3)cc(-c3ncc(C)s3)c2)cn1 [Example 315, N-[(1R)-1-(2-methylpyrimidin-5-yl)ethyl]-3-(5-methyl-1,3-thiazol-2-yl)-5-{[1-(2,2,2-trifluoroethyl)piperidin-4-yl]oxy}benzamide]	160 nM	8 nM	
Cc1ccc([C@@H](C)NC(=O)c2cc(OC[C@H]3CCOC3)cc(-c3ncc(Cl)s3)c2)nn1 [Example 316, 3-(5-chloro-1,3-thiazol-2-yl)-N-[(1R)-1-(6-methylpyridazin-3-yl)ethyl]-5-[(3S)-tetrahydrofuran-3-ylmethoxy]benzamide]	250 nM		21 nM
Cc1ccc([C@@H](C)NC(=O)c2cc(O[C@@H]3CCOC3)cc(-c3ncc(Cl)s3)c2)nn1 [Example 317, 3-(5-chloro-1,3-thiazol-2-yl)-N-[(1R)-1-(6-methylpyridazin-3-yl)ethyl]-5-[(3R)-tetrahydrofuran-3-yloxy]benzamide]	952 nM	45 nM	
C[C@@H](NC(=O)c1cc(O[C@@H]2CCOC2)cc(-c2ncc(Cl)s2)c1)c1ccc(C(F)(F)F)nn1 [Example 318, 3-(5-chloro-1,3-thiazol-2-yl)-5-[(3R)-tetrahydrofuran-3-yloxy]-N-{(1R)-1-[6-(trifluoromethyl)pyridazin-3-yl]ethyl}benzamide]	476 nM	32 nM	
C[C@@H](NC(=O)c1cc(O[C@H]2CCOC2)cc(-c2ncc(Cl)s2)c1)c1ccc(C(F)(F)F)nn1 [Example 320, 3-(5-chloro-1,3-thiazol-2-yl)-5-[(3S)-tetrahydrofuran-3-yloxy]-N-{(1R)-1-[6-(trifluoromethyl)pyridazin-3-yl]ethyl}benzamide]	627 nM	33 nM	
Cc1ccc([C@@H](C)NC(=O)c2cc(O[C@H]3CCOC3)cc(-c3ncc(Cl)s3)c2)nn1 [Example 322, 3-(5-chloro-1,3-thiazol-2-yl)-N-[(1R)-1-(6-methylpyridazin-3-yl)ethyl]-5-[(3S)-tetrahydrofuran-3-yloxy]benzamide]	498 nM	49 nM	
C[C@@H](NC(=O)c1cc(OC[C@H]2CCOC2)cc(-c2ncc(Cl)s2)c1)c1cnc(C(F)(F)F)nc1 [Example 323, 3-(5-chloro-1,3-thiazol-2-yl)-5-[(3S)-tetrahydrofuran-3-ylmethoxy]-N-{(1R)-1-[2-(trifluoromethyl)pyrimidin-5-yl]ethyl}benzamide]	411 nM	25 nM	
Cc1ccc([C@@H](C)NC(=O)c2cc(OC3CCOCC3)cc(-c3ncc(Cl)s3)c2)nn1 [Example 325, 3-(5-chloro-1,3-thiazol-2-yl)-N-[(1R)-1-(6-methylpyridazin-3-yl)ethyl]-5-(tetrahydro-2H-pyran-4-yloxy)benzamide]	235 nM	26 nM	
C[C@@H](NC(=O)c1cc(OC2CCOCC2)cc(-c2ncc(Cl)s2)c1)c1ccc(C(F)(F)F)nn1 [Example 326, 3-(5-chloro-1,3-thiazol-2-yl)-5-(tetrahydro-2H-pyran-4-yloxy)-N-{(1R)-1-[6-(trifluoromethyl)pyridazin-3-yl]ethyl}benzamide]	378 nM	21 nM	
Cc1cnc(-c2cc(OCC3(C)COC3)cc(C(=O)N[C@H](C)c3cnc(C(F)(F)F)nc3)c2)s1 [Example 327, 3-[(3-methyloxetan-3-yl)methoxy]-5-(5-methyl-1,3-thiazol-2-yl)-N-{(1R)-1-[2-(trifluoromethyl)pyrimidin-5-yl]ethyl}benzamide]	239 nM	10 nM	
Cc1cnc(-c2cc(OCC(C)(C)O)cc(C(=O)N[C@H](C)c3cnc(C(F)(F)F)nc3)c2)s1 [Example 328, 3-(2-hydroxy-2-methylpropoxy)-5-(5-methyl-1,3-thiazol-2-yl)-N-{(1R)-1-[2-(trifluoromethyl)pyrimidin-5-yl]ethyl}benzamide]	274 nM		12 nM
Cc1cnc(-c2cc(OC[C@@H]3CN(C)CCO3)cc(C(=O)N[C@H](C)c3cnc(C(F)(F)F)nc3)c2)s1 [Example 351, 3-{[(2S)-4-methylmorpholin-2-yl]methoxy}-5-(5-methyl-1,3-thiazol-2-yl)-N-{(1R)-1-[2-(trifluoromethyl)pyrimidin-5-yl]ethyl}benzamide]	690 nM	16 nM	
Cc1cnc(-c2cc(OCC3CN(C)CCO3)cc(C(=O)N[C@H](C)c3cnc(C(F)(F)F)nc3)c2)s1 (stereo partly drawn) [Example 353, 3-{[4-methylmorpholin-2-yl]methoxy}-5-(5-methyl-1,3-thiazol-2-yl)-N-{(1R)-1-[2-(trifluoromethyl)pyrimidin-5-yl]ethyl}benzamide]	427 nM	7 nM	
Cc1cnc(-c2cc(OC[C@H]3COCCN3C)cc(C(=O)N[C@H](C)c3cnc(C(F)(F)F)nc3)c2)s1 [Example 360]	455 nM	10 nM	
Cc1cnc(-c2cc(OC[C@@H]3COCCN3C)cc(C(=O)N[C@H](C)c3ccc(C(F)(F)F)nc3)c2)s1 [Example 361, 3-{[(3S)-4-methylmorpholin-3-yl]methoxy}-5-(5-methyl-1,3-thiazol-2-yl)-N-{(1R)-1-[6-(trifluoromethyl)pyridin-3-yl]ethyl}benzamide]	1250 nM	14 nM	
Cc1cnc(-c2cc(OC[C@@H]3COCCN3C)cc(C(=O)N[C@H](C)c3cnc(C(F)(F)F)nc3)c2)s1 [Example 362]	1010 nM	8 nM	
Cc1cnc(-c2cc(OC[C@H]3COCCN3C)cc(C(=O)N[C@H](C)c3ccc(C(F)(F)F)nc3)c2)s1 [Example 363, 3-{[(3R)-4-methylmorpholin-3-yl]methoxy}-5-(5-methyl-1,3-thiazol-2-yl)-N-{(1R)-1-[6-(trifluoromethyl)pyridin-3-yl]ethyl}benzamide]	717 nM		12 nM
